Measured values taken from paper PMC7503933, “Benzyl Furanones and Pyrones from the Marine-Derived Fungus Aspergillus terreus Induced by Chemical Epigenetic Modification” (Molecules, 2020).

Target: T1, PTP1B (Homo sapiens, UniProt P18031)
T1 construct: gene PTPN1; human recombinant (Abcam ab51277)
T1 sequence (P18031 1-435): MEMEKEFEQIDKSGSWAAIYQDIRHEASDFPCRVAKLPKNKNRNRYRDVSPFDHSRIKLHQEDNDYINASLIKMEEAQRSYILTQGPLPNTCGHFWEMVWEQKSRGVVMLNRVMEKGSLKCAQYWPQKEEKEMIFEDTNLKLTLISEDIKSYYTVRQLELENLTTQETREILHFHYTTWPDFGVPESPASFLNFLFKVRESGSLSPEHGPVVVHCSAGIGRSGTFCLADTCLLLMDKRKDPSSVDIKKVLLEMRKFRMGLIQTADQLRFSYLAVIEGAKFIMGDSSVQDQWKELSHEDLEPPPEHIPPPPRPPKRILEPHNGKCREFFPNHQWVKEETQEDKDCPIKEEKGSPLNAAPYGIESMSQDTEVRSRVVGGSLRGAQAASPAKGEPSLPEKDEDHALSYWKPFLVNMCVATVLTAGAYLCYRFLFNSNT
Experiment: recombinant PTP1B pNPP hydrolysis assay, absorbance […] nm
Type: biochemical

IC50 [µM] | SMILES
17.3 | COc1cc(O)cc(C)c1C[C@@]1(C(N)=O)OC(C)=CC1=O
45.8 | COc1cc(O)cc(C)c1CC1(C(N)=O)OC(C)=CC1=O (racemic) [(±)-1, Asperfuranone (1)]
35.5 | COc1cc(O)cc(C)c1C[C@]1(C(N)=O)OC(C)=CC1=O [(−)-1, (−)-asperfuranone]
42.3 | COc1cc(O)cc(C)c1Cc1c(O)cc(C)oc1=O [compound 2, asperpyranone A]
